Test results taken from patent US20260306633A1, “A COMBINATION THERAPY FOR CANCER TREATMENT” (Purdue Research Foundation, priority 2023, published 2026).
Like-named read-outs stand apart in the source and are kept apart here.

Tests used:
[1] = tested on: TNBC BT-549 cells; assay: Cell survival / cell inhibition (MTT cell cytotoxicity assay) after 24 h treatment with photosensitizer and/or chemotherapeutic agent, dark or light-irradiated; format: cell-based, human; conditions: for viability at 1 µM: high end of 100-1000 nM; for viability at 0.01 µM: low end of 10-100 nM (so in the source)
Method: Human mammary epithelial carcinoma cell lines purchased from the American Type Culture Collection BT-549 (ATCC HTB-122) were cultured according to ATCC protocol. BT-549 cells were grown in RPMI 1640 containing 0.023 IU/mL insulin and supplemented with 10% fetal bovine serum (FBS). Cells were grown to 80-90% confluence in 75-cm^2 culture flasks (Corning) for 4-5 days in a humidified incubator (Fisher Scientific Isotemp) with 5% CO2 at 37° C. During the incubation period, growth media was changed once with fresh pre-warmed media (pH 7.2). To harvest the cells, old growth media was aspirated out, and 3 mL 0.25% trypsin solution (Thermo Sci Hyclone) were added. The cells were incubated for 5 minutes, and the cell pellet after centrifugation was resuspended in 3 mL media, broken up gently, then 1 mL of suspended cells was transferred into a new T75 cell culture flask containing pre-warmed media (20 mL) for further culturing.
Cells were grown to confluence in a 96-well plate (9×10^3 cells/well) and co-treated for 24 hours with synthesized photosensitizers (PSs) and chemotherapeutic agents of varying concentrations ranging from 5 nM to 50 μM) in growth media from a stock solution of 10 mM in DMSO (dimethyl sulfoxide, Fisher). After 24-hour treatment, old growth media containing the PSs or compounds were aspirated out and replaced with fresh media. Plates were then positioned below a non-coherent LumaCare LC-122 650 nm light source for 1 minute at an energy fluence rate of 0.96 J/cm^2 and a power of 16 mW/cm^2 (measured using a Newport optical power meter Model 840). Unirradiated cells served as control samples. The following day, cells were washed with pre-warmed PBS, and 11MTT (3-[4,5-dimethyl-thiazol-2-yl]-2.5-diphenyltetrazolium bromide, Sigma, 0.3 mg/mL) in PBS was added to each well. Samples were allowed to incubate for additional 2 hours, after which dark blue crystals formed. DMSO was added to each well and plates were shaken at room temperature for 1 hour to dissolve the purplish-blue formazan crystals. Absorbance values at 570 nm were measured on a microplate reader (BioRad 550). Cell survival was calculated based on the absorbance of the untreated cells alone (as control) and were directly proportional to the number of viable cells in culture. Results were reported as the mean±SD of triplicate measurements.
The unmetallated PS and the indium complexes were used.
Light dose corresponds to an energy fluence rate of 0.96 J/cm^2 used.
Power of 16 mW/cm^2 used.
Cell inhibition in TNBC cells is based on the cell survival (MTT) assay of the binary therapy, blending the effect of PDT and chemotherapeutic agents. […] MePheo serves as a control compound. TNBC cells were then exposed to light after binary treatment for 24 hours.

[2] = tested on: human TNBC BT-549 cells; assay: Fluorescence microscopy (Hoechst 33258) of cell morphology / cell death pathway; format: cell-based; conditions: fluorouracil 25 μM, dark (FIG. 18U)
Method: Grayscale images of cells stained with Hoechst 33258. Morphology of (A) untreated unirradiated cells, sham control; (B) illuminated cells; (C-E) cells treated with: PSs (InCLA, CBTN, and CPA) and paclitaxel in the dark; (F-H) PSs, followed by 1 minute light exposure; (I) paclitaxel unirradiated; (J-L) PSs and paclitaxel in the dark; (M-O) PSs co-treated with paclitaxel, then light-exposed; (P-Q) PSs co-treated with doxorubicin, then irradiated; (R) PSs and cisplatin, dark; (S-T) PSs and cisplatin, irradiated; (U) fluorouracil, dark; (V) InCLA with fluorouracil in the dark; (W) light-exposed and, (X-Y) PSs with methotrexate with light. Inserts indicate enlarged view. […] Light dose in 1 minute=0.96 J cm^−2; in 30 seconds=0.48 J cm^−2. Concentrations: PSs=50 nM; paclitaxel=50 nM; doxorubicin=500 nM; cisplatin=25 μM; fluororuracil=25 μM; and, methotrexate=500 nM.
Cells (1 mL aliquots) obtained from a diluted cell suspension were seeded into each well (1.7 cm^2, 8×10^3 cells/well) of a 4-well culture slide (BD Biosciences) and grown to confluence in 5% CO2 at 37° C. for 3-4 days for attachment to the substratum. After aspirating the old growth media, 1 mL of the photosensitizer and chemotherapeutic agents (with appropriate concentrations) in fresh pre-warmed media at 37° C. was added to each well. After compound treatment for 24 hours, cells were washed twice with 1 mL fresh growth media, and then irradiated with light using LumaCare LC-122 as described above. Cells were stained in the dark with Hoechst 33258 (Molecular Probes) in pre-warmed media for 10 minutes at 37° C., washed twice with filtered PBS, then fixed with filtered paraformaldehyde for 15 minutes in the incubator. After thorough liquid aspiration, the wells were removed and allowed to air dry in the dark for 1 hour. Slides were protected with coverslips, whose edges were sealed using clear fast-drying nail polish and allowed to dry at room temperature in the dark for 30 minutes. Images were recorded using fluorescence microscopy (DAPI for Hoechst 350-390 nm excitation and 460-490 nm emission filters) using an upright fluorescence microscope with Retiga imaging 2000R (Nikon Optiphot-2, 20× and 40×) and an image processing Nikon NIS-Elements V4.0 Qimaging software.
To determine the preferred cell death pathway for the binary chemophotodynamic therapy, tracking the hallmarks of apoptosis or necrosis was accomplished using a nuclear stain to monitor chromatin condensation and cellular contraction. TNBC cells are spindle-shaped and nearly round with intact cytoplasm, diffused chromatin, distinct cellular membrane, and large oval nuclei staining dark blue with the nuclear stain (FIG. 18A-B).

| SMILES | viability at 0.5 µM ([1]; Homo sapiens, BT-549, 24 h, doxorubicin 500 nM, dark, read-out: cell survival, drug only) | viability at 1 µM ([1]; Homo sapiens, BT-549, 24 h, doxorubicin, dark, read-out: cell survival, drug only (end of decrease)) | viability at 0.1 µM ([1]; Homo sapiens, BT-549, 24 h, doxorubicin, dark, low end of 100-1000 nM, read-out: cell survival, drug only (start of decrease)) | viability at 1 µM ([1]; Homo sapiens, BT-549, 24 h, doxorubicin, light, read-out: cell survival, drug only (end of decrease)) | viability at 0.1 µM ([1]; Homo sapiens, BT-549, 24 h, doxorubicin, light, low end of 100-1000 nM, read-out: cell survival, drug only (start of decrease)) | average decrease in cell survival upon light irradiation compared to unirradiated cells, drug only ([1]; drug alone, light vs dark) | viability at 25 µM ([1]; Homo sapiens, BT-549, 24 h, fluorouracil 25 μM, dark, read-out: cell survival, drug only) | viability at 0.1 µM ([1]; Homo sapiens, BT-549, 24 h, fluorouracil, dark, high end of 10-100 nM (so in the source), read-out: cell survival, drug only (end of decrease)) | viability at 0.01 µM ([1]; Homo sapiens, BT-549, 24 h, fluorouracil, dark, read-out: cell survival, drug only (start of decrease)) | viability at 0.1 µM ([1]; Homo sapiens, BT-549, 24 h, fluorouracil, light, high end of 10-100 nM (so in the source), read-out: cell survival, drug only (end of decrease)) | viability at 0.01 µM ([1]; Homo sapiens, BT-549, 24 h, fluorouracil, light, read-out: cell survival, drug only (start of decrease)) | cell morphology, fluorouracil, dark [2] | viability at 0.5 µM ([1]; Homo sapiens, BT-549, 24 h, methotrexate 500 nM, dark, read-out: cell survival, drug only) | viability at 1 µM ([1]; Homo sapiens, BT-549, 24 h, methotrexate, dark, read-out: cell survival, drug only (end of decrease)) | viability at 0.1 µM ([1]; Homo sapiens, BT-549, 24 h, methotrexate, dark, low end of 100-1000 nM, read-out: cell survival, drug only (start of decrease)) | viability at 1 µM ([1]; Homo sapiens, BT-549, 24 h, methotrexate, light, read-out: cell survival, drug only (end of decrease)) | viability at 0.1 µM ([1]; Homo sapiens, BT-549, 24 h, methotrexate, light, low end of 100-1000 nM, read-out: cell survival, drug only (start of decrease)) | average increase in cell survival upon light irradiation compared to unirradiated cells, drug only ([1]; drug alone, light vs dark) |
| --- | --- | --- | --- | --- | --- | --- | --- | --- | --- | --- | --- | --- | --- | --- | --- | --- | --- | --- |
| COc1cccc2c1C(=O)c1c(O)c3c(c(O)c1C2=O)C[C@@](O)(C(=O)CO)C[C@@H]3O[C@H]1C[C@H](N)[C@H](O)[C@H](C)O1 [doxorubicin, reference compound] | 81% | 70% | 100% | 72% | 95% | 2-5% |  |  |  |  |  |  |  |  |  |  |  |  |
| O=c1[nH]cc(F)c(=O)[nH]1 [fluorouracil, 5-Fluorouracil, reference compound] |  |  |  |  |  | 9% | 64% | 65% | 87% | 68% | 85% | did not affect the cellular morphology |  |  |  |  |  |  |
| CN(Cc1cnc2nc(N)nc(N)c2n1)c1ccc(C(=O)N[C@@H](CCC(=O)O)C(=O)O)cc1 [methotrexate, reference compound] |  |  |  |  |  |  |  |  |  |  |  |  | 78% | 66% | 87% | 66% | 93% | 6% |
